Results published in PubChem BioAssay AID1963853 (Molecular Pharmacology Branch, DTP, NCI, 2024).
pIC50: −log10 of the molar value. “And” between values parts separate entries of the source, which are not always exact repeats. Identical values can stand only once.

System: 266295-075-R-J1-PDC spheroid viability
Test: Anticancer human tumor 266295-075-R-J1-PDC patient-derived head and neck squamous carcinoma cell line growth inhibition [POLQ]
Details: spheroids with HUVEC and MSC; for viability, T/C: stronger effect = lower value
How it was run: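 PDC + HUVEC + MSC complex spheroids; POLQ inhibitors ± partner drugs; top conc. at/near clinical Cmax, else 10 microM (SN-38 1 microM), half-log dilutions; 37 degrees C, 5% CO2.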

[1] = curve of first compound, second compound 0.0316 µM
[2] = curve of first compound, second compound 0.1 µM
[3] = curve of first compound, second compound 0.316 µM
[4] = curve of first compound, second compound 1 µM
[5] = curve of first compound, second compound 3.16 µM
[6] = curve of first compound, second compound 10 µM
[7] = second compound 0.0316 µM, first compound 0.00316 µM
[8] = second compound 0.0316 µM, first compound 0.01 µM
[9] = second compound 0.0316 µM, first compound 0.0316 µM
[10] = second compound 0.0316 µM, first compound 0.1 µM
[11] = second compound 0.1 µM, first compound 0.00316 µM
[12] = second compound 0.1 µM, first compound 0.01 µM
[13] = second compound 0.1 µM, first compound 0.0316 µM
[14] = second compound 0.1 µM, first compound 0.1 µM
[15] = second compound 0.316 µM, first compound 0.00316 µM
[16] = second compound 0.316 µM, first compound 0.01 µM
[17] = second compound 0.316 µM, first compound 0.0316 µM
[18] = second compound 0.316 µM, first compound 0.1 µM
[19] = second compound 1 µM, first compound 0.00316 µM
[20] = second compound 1 µM, first compound 0.01 µM
[21] = second compound 1 µM, first compound 0.0316 µM
[22] = second compound 1 µM, first compound 0.1 µM
[23] = second compound 3.16 µM, first compound 0.00316 µM
[24] = second compound 3.16 µM, first compound 0.01 µM
[25] = second compound 3.16 µM, first compound 0.0316 µM
[26] = second compound 3.16 µM, first compound 0.1 µM
[27] = second compound 10 µM, first compound 0.00316 µM
[28] = second compound 10 µM, first compound 0.01 µM
[29] = second compound 10 µM, first compound 0.0316 µM
[30] = second compound 10 µM, first compound 0.1 µM
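Note: spheroids exposed to compounds for seven days before readout.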

Structure (SMILES): CC1COCCN1c1cc(C2(S(C)(=N)=O)CC2)nc(-c2ccnc3[nH]ccc23)n1 (stereo unspecified)
- viability, T/C (compound 0.0316 µM): 92.3% and 97.5% and 86.5%
- viability, T/C (compound 0.1 µM): 95.2% and 93.2% and 93.5%
- viability, T/C (compound 0.316 µM): 89.9% and 85.6% and 97.6%
- viability, T/C (compound 1 µM): 83.2% and 80% and 78.7%
- viability, T/C (compound 3.16 µM): 73.2% and 87.5% and 76.5%
- viability, T/C (compound 10 µM): 55.6% and 56% and 54.7%
- pIC50 (curve of compound): < 5.00

Structure (SMILES): CC1COCCN1c1cc(C2(O)CC3CCC(C2)O3)c2cnn(-c3ccn[nH]3)c2n1 (stereo unspecified)
- viability, T/C (compound 0.0316 µM): 74.1% and 100% and 73.6%
- viability, T/C (compound 0.1 µM): 84.5% and 71.6% and 81%
- viability, T/C (compound 0.316 µM): 62.8% and 65.5% and 67.8%
- viability, T/C (compound 1 µM): 43.3% and 50.5% and 46.8%
- viability, T/C (compound 3.16 µM): 40.4% and 43.8% and 42.7%
- viability, T/C (compound 10 µM): 27.9% and 29.2% and 30.2%
- pIC50 (curve of compound): 6.15 and 6.00 and 6.03

Structure (SMILES): CC(=O)O[C@H]1C(=O)[C@@]2(C)[C@H]([C@H](OC(=O)c3ccccc3)[C@]3(O)C[C@H](OC(=O)[C@H](O)[C@@H](NC(=O)c4ccccc4)c4ccccc4)C(C)=C1C3(C)C)[C@]1(OC(C)=O)CO[C@@H]1C[C@@H]2O
- viability, T/C (compound 0.00949 µM): 76.7% and 71.7% and 79%
- viability, T/C (compound 0.03 µM): 72.1% and 64.8% and 76%
- viability, T/C (compound 0.0949 µM): 54.3% and 61.7% and 67.4%
- viability, T/C (compound 0.3 µM): 80.9% and 69.8% and 75%
- viability, T/C (compound 0.949 µM): 73% and 75.7% and 70.2%
- viability, T/C (compound 3 µM): 61.1% and 82% and 77.6%
- pIC50 (curve of compound): < 5.52

Structure (SMILES): COC1C(OC(N)=O)C(O)C(Oc2ccc3c(O)c(NC(=O)c4ccc(O)c(CC=C(C)C)c4)c(=O)oc3c2C)OC1(C)C (stereo unspecified)
- viability, T/C (compound 0.0316 µM): 101% [middle of 13 runs]
- viability, T/C (compound 1 µM): 101% [middle of 13 runs]
- pIC50 (compound alone, run of 10/31/2023): < 5.00

Structure (SMILES): CC[C@@]1(O)C(=O)OCc2c1cc1n(c2=O)Cc2cc3c(CN(C)C)c(O)ccc3nc2-1 + Cc1cccc(N(C)C(=O)C2C(O)CCN2c2nc(C)cc(C(F)(F)F)c2C#N)c1
- pIC50 [1]: < 7.00
- pIC50 [2]: < 7.00
- pIC50 [3]: < 7.00
- pIC50 [4]: < 7.00
- pIC50 [5]: < 7.00
- pIC50 [6]: < 7.00
- viability, T/C (second compound 0.0316 µM, first compound 0.000316 µM): 75%
- viability, T/C (second compound 0.0316 µM, first compound 0.001 µM): 85.8%
- viability, T/C [7]: 107%
- viability, T/C [8]: 83.8%
- viability, T/C [9]: 91.3%
- viability, T/C [10]: 76.3%
- viability, T/C (second compound 0.1 µM, first compound 0.000316 µM): 94.2%
- viability, T/C (second compound 0.1 µM, first compound 0.001 µM): 90.1%
- viability, T/C [11]: 77.6%
- viability, T/C [12]: 81.2%
- viability, T/C [13]: 86.6%
- viability, T/C [14]: 77.8%
- viability, T/C (second compound 0.316 µM, first compound 0.000316 µM): 101%
- viability, T/C (second compound 0.316 µM, first compound 0.001 µM): 88%
- viability, T/C [15]: 88%
- viability, T/C [16]: 86.8%
- viability, T/C [17]: 106%
- viability, T/C [18]: 93.9%
- viability, T/C (second compound 1 µM, first compound 0.000316 µM): 79%
- viability, T/C (second compound 1 µM, first compound 0.001 µM): 103%
- viability, T/C [19]: 85.2%
- viability, T/C [20]: 91.2%
- viability, T/C [21]: 92.3%
- viability, T/C [22]: 87.7%
- viability, T/C (second compound 3.16 µM, first compound 0.000316 µM): 78%
- viability, T/C (second compound 3.16 µM, first compound 0.001 µM): 94.2%
- viability, T/C [23]: 92.4%
- viability, T/C [24]: 87.2%
- viability, T/C [25]: 91.9%
- viability, T/C [26]: 78.2%
- viability, T/C (second compound 10 µM, first compound 0.000316 µM): 122%
- viability, T/C (second compound 10 µM, first compound 0.001 µM): 93.8%
- viability, T/C [27]: 93.3%
- viability, T/C [28]: 109%
- viability, T/C [29]: 115%
- viability, T/C [30]: 88.4%

Structure (SMILES): CNCc1ccc(-c2[nH]c3cc(F)cc4c3c2CCNC4=O)cc1
- viability, T/C (compound 0.0316 µM): 105% and 77.3% and 89.9%
- viability, T/C (compound 0.1 µM): 102% and 92.1% and 96.7%
- viability, T/C (compound 0.316 µM): 107% and 102% and 87.6%
- viability, T/C (compound 1 µM): 91.4% and 94% and 99.2%
- viability, T/C (compound 3.16 µM): 110% and 105% and 106%
- viability, T/C (compound 10 µM): 91.8% and 123% and 105%
- pIC50 (curve of compound): < 5.00

Structure (SMILES): C#Cc1c(F)ccc2cc(O)cc(-c3ncc4c(N5CC6CCC(C5)N6)nc(OCC56CCCN5CC(F)C6)nc4c3F)c12 (stereo unspecified)
- viability, T/C (compound 0.0316 µM): 88.8% and 94.8% and 100%
- viability, T/C (compound 0.1 µM): 93.5% and 94.2% and 79.7%
- viability, T/C (compound 0.316 µM): 81.2% and 69.6% and 68.8%
- viability, T/C (compound 1 µM): 76.1% and 83.5% and 63.2%
- viability, T/C (compound 3.16 µM): 66% and 76.4% and 54.8%
- viability, T/C (compound 10 µM): 61.1% and 56.7% and 58%
- pIC50 (curve of compound): < 5.00

Structure (SMILES): CC1COCCN1c1cc(-c2ccnn2C)c2ccnc(-c3ccn[nH]3)c2n1 (stereo unspecified)
- viability, T/C (compound 0.0316 µM): 91% and 92.4% and 98.3%
- viability, T/C (compound 0.1 µM): 70.7% and 81.1% and 80.7%
- viability, T/C (compound 0.316 µM): 62.5% and 67.2% and 69.4%
- viability, T/C (compound 1 µM): 45.2% and 52.3% and 59.2%
- viability, T/C (compound 3.16 µM): 47.1% and 49% and 53.5%
- viability, T/C (compound 10 µM): 36.6% and 36.9% and 32%
- pIC50 (curve of compound): 6.02 and 5.73 and 5.61

Structure (SMILES): CCc1c2c(nc3ccc(O)cc13)-c1cc3c(c(=O)n1C2)COC(=O)[C@]3(O)CC + Nc1ccc(C#CCN(C(=O)Cc2ncc(C(F)(F)F)cc2C(F)(F)F)c2ccc(F)cc2)nn1
- pIC50 [1]: < 6.00
- pIC50 [2]: < 6.00
- pIC50 [3]: < 6.00
- pIC50 [4]: < 6.00
- pIC50 [5]: < 6.00
- pIC50 [6]: < 6.00
- viability, T/C [7]: 86.6%
- viability, T/C [8]: 96%
- viability, T/C [9]: 84.6%
- viability, T/C [10]: 97.7%
- viability, T/C (second compound 0.0316 µM, first compound 0.316 µM): 106%
- viability, T/C (second compound 0.0316 µM, first compound 1 µM): 81%
- viability, T/C [11]: 103%
- viability, T/C [12]: 80.7%
- viability, T/C [13]: 76.9%
- viability, T/C [14]: 102%
- viability, T/C (second compound 0.1 µM, first compound 0.316 µM): 96.2%
- viability, T/C (second compound 0.1 µM, first compound 1 µM): 75.4%
- viability, T/C [15]: 98.6%
- viability, T/C [16]: 83.1%
- viability, T/C [17]: 80.2%
- viability, T/C [18]: 101%
- viability, T/C (second compound 0.316 µM, first compound 0.316 µM): 117%
- viability, T/C (second compound 0.316 µM, first compound 1 µM): 73.5%
- viability, T/C [19]: 106%
- viability, T/C [20]: 82.7%
- viability, T/C [21]: 81.9%
- viability, T/C [22]: 85.8%
- viability, T/C (second compound 1 µM, first compound 0.316 µM): 101%
- viability, T/C (second compound 1 µM, first compound 1 µM): 63.4%
- viability, T/C [23]: 108%
- viability, T/C [24]: 96.8%
- viability, T/C [25]: 96.1%
- viability, T/C [26]: 109%
- viability, T/C (second compound 3.16 µM, first compound 0.316 µM): 99.5%
- viability, T/C (second compound 3.16 µM, first compound 1 µM): 65%
- viability, T/C [27]: 100%
- viability, T/C [28]: 97.1%
- viability, T/C [29]: 83.2%
- viability, T/C [30]: 81.5%
- viability, T/C (second compound 10 µM, first compound 0.316 µM): 117%
- viability, T/C (second compound 10 µM, first compound 1 µM): 70.4%

Structure (SMILES): O=C(Nc1ccc(O)c(NS(=O)(=O)c2ccc(F)cc2)c1)c1ccc(-c2ccccc2)cc1
- viability, T/C (compound 0.0316 µM): 119% and 92.8% and 88.2%
- viability, T/C (compound 0.1 µM): 112% and 97.5% and 96.2%
- viability, T/C (compound 0.316 µM): 102% and 96.6% and 99.1%
- viability, T/C (compound 1 µM): 123% and 103% and 118%
- viability, T/C (compound 3.16 µM): 153% and 112% and 122%
- viability, T/C (compound 10 µM): 114% and 96.1% and 113%
- pIC50 (curve of compound): < 5.00
